# Assay results as given in patent publication US20180078529A1, “ANGIOTENSIN II RECEPTOR AGONIST FOR TREATING PULMONARY FIBROSIS” (VICORE PHARMA AB, priority 2015, published 2018).
# Tested on: Patients have a diagnosis of Idiopathic Pulmonary Fibrosis, IPF
# Assay: Treatment of patients with Idiopathic Pulmonary Fibrosis with C21 (Examples 1 and 2)
# Assay type: in vivo, human
# Settings: a few weeks after starting treatment
# Protocol: Patients have a diagnosis of Idiopathic Pulmonary Fibrosis, IPF, who generally are above the age of 60 years, often with concomitant diseases, like ischemic heart disease, diabetes etc. Patients may either be treated for IPF with currently established drugs, e.g. pirfenidone and/or nintedanib or treatment-naïve. Each patient receives a compound of the invention, C21, in a dose range between 0.3 mg and 100 mg daily that is administered once or several times daily. Control groups are administered placebo, or one or more currently established therapies, e.g. pirfenidone and/or nintedanib. The compound, C21, is in a formulation hat can be administered to the patient orally, via inhalation, intravenously or as a combination of more than one route of administration for the treatment of IPF. The treatment is evaluated through efficacy variables such as objective measurements of improved lung capacity/cardiac function and subjective symptoms and quality of life—both at visits to doctors' office and in the patient's home or work environment. Beneficial effects are recorded and followed after one to several months' treatment with the compound, C21, vs placebo or vs currently established therapy(-ies), e.g. pirfenidone and/or nintedanib.
# Patients have a diagnosis of Idiopathic Pulmonary Fibrosis, IPF, and are treated according to EXAMPLE 1. […] Furthermore, cardiac function tests, e.g. echo or MRI, may indicate improvements in the underlying lung disease resulting in improved cardiac performance. Benefits may also be seen as an improvement in progression-free survival, where the number of deaths is analyzed together with the number of patients presenting with pre-defined marked reduction of FVC and/or exercise capacity. Benefits can be either self-reported or objectively recorded. Improvements in symptoms may include less dyspnea, less cough, less fatigue, increased exercise capacity and improved quality of life. Improvements may be seen in treatment-naïve patients as well as in those already on treatment with established therapies for IPF.
structure (smiles),measurement,setting,value
"CCCCOC(=O)NS(=O)(=O)c1sc(CC(C)C)cc1-c1ccc(Cn2ccnc2)cc1 [Compound C21, N-Butyloxycarbonyl-3-(4-imidazol-1-ylmethylphenyl)-5-iso-butylthiophene-2-sulfonamide]",dyspnea and cough (patient-reported),,slight improvement
same,exercise capacity,patient with IPF,without any deterioration
same,biomarkers that are relevant for the progression of the disease (blood tests),"patient with IPF, C21 0.3 mg to 100 mg daily",improvement in biomarkers
